Assay results as given in patent US9289488B2, “Vaccine engineering” (AC Immune SA, priority 2010, dated 2016).
Read-outs that look alike come from different tables or passages of the source. K(Palm) = lysine with palmitoylated side chain (X = Palmitoyl); K(Ac) = lysine with acetylated side chain (X = Acetyl)

Tests used:
[1] = target: T1, β-sheet aggregates of liposomal Palm1-15 (ACI-24) (Homo sapiens, UniProt P05067); test: Disaggregation assay using ThT fluorescence on ACI-24; format: biochemical; conditions: for decrease of ThT fluorescence upon addition of metal: near stoichiometric metal:peptide (20 μM : 15 μM), 2 h incubation; for ThT fluorescence after incubation with β-sheet breaker small molecule: ACI-24, 2 h incubation
T1 construct: purchased Bachem (Switzerland); host or cells: chemical synthesis
Protocol: (§1) • CD spectra were acquired on a Jasco-815 spectropolarimeter (Japan) with a 0.1 cm path length quartz cuvette at 23° C. Measurements were made with a 1.0 nm bandwidth and 0.5 nm resolution. A scan speed of 50 nm/min was employed with response time of 1 s. Solvent control spectra (4 scans) were averaged and subtracted from the average of 8 scans of each sample spectra. All spectra ([θ]obs, degrees) were smoothed after being converted to mean residue molar ellipticity ([θ], degrees cm^2 dmol^−1) with the equation [θ]=[θ]obs×(MRW/10lc), where MRW is the mean residue molecular weight (MW/number of residues), l is the optical path length (cm) and c is the concentration (g/cm^3). […] Spectra of the corresponding empty liposomes lacking peptide were subtracted. A2 ThT Fluorescence. • Fluorescence emission spectra were measured at 25° C. on a Tecan M200 spectrofluorimeter with an excitation of 440 nm. […] Data were fitted using non-linear regression analysis (SigmaPlot v10.0) assuming single-site binding saturation in order to calculate apparent Kd and maximal binding Bmax. A3 Disaggregation Assay Using ThT Fluorescence. • ZnCl2, FeCl3 or CuCl2 (2 μL, 1 mM in H2O) were incubated with liposomes diluted 4-fold in PBS (48 μL) for 2 h at 22° C. PBS (48 μL) with or without DPTA (0.4 mM) was added accordingly after 5 min. ThT (2 μL, 2.4 mM in H2O) was then added and fluorescence measured after a further 5 min. For disaggregation with small molecules, Rosmarinic acid, Tannic acid or Methylene Blue (2 μL, 2.7 mM in PBS) were added to 86 μL of liposomes diluted 8-fold with PBS. After 2 h incubation at RT, ThT (2 μL, 2.4 mM in H2O) was added and after 10 min. fluorescence was measured at 490 nm (Ex. 440 nm). A4 MAS-NMR Spectroscopy. • Experiments were conducted using a 3.2 mm triple-resonance (^1H, ^13C, ^15N) MAS probe (Bruker Biospin, Germany) at a static magnetic field of 16.4 T corresponding to 700 MHz proton resonance frequency. […] Experiments were recorded using 10 kHz MAS and at effective sample temperature of about 4° C. After a cross polarization (CP) step employing a contact time of 600 μs, the SPC5 pulse sequence was used for generation of DQ coherence, with a ^13C radio frequency (r.f.) field strength of 50 kHz and DQ excitation and reconversion time totaling 2.28 ms. Acquisition involved in each case 110K repetitions. An ^1H field strength of 83.3 kHz was used during excitation and SPINAL64 proton decoupling. A5 SPR Analysis of Peptide-Liposome Interactions. • Experiments were performed at 25° C. using 0.2 μm filtered and degassed PBS as running buffer. An L1 sensor chip (GE Healthcare, Sweden) was docked into a BIAcore 1000 instrument and the chip surface conditioned by injection of 50 μL of Zwittergent at 30 μL/min. Liposomes lacking peptide (‘empty’ liposomes) were then immobilized onto the sensor chip following 2 successive injections of 50 μL at 2 μL/min. Finally 50 μL of 50 mM NaOH was injected over the surface at 30 μL/min in order to render the surface more unilamellar. […] 50 μL of acetylated peptides solubilized in PBS were then injected over the surface over a range of concentrations at a flow rate of 30 μL/min, followed by dissociation with PBS for 300 s. After analysis of the interaction of different peptides, a fresh lipid bilayer was immobilized. A6 Dynamic Light Scattering. • Liposome samples were diluted 100-fold with PBS. Analysis was performed using a Zetasizer Nano (Malvern, USA) at 25° C. Data was analyzed with DTS 5.0 (Malvern) software by signal intensity in order to calculate the average liposome diameter and polydispersity index (PDI). A7 Cryo-EM. • Liposome sample was diluted 6-fold with PBS and then 3 μL was applied on glow discharged R 2/4 holey carbon grids (Quantifoil®), blotted off, and plunged frozen into liquid ethane under temperature and humidity controlled conditions using the Vitribot™ (FEI, The Netherlands).

[2] = reported value; read-out: apparent Kd for the interaction of ThT with Aβ1-40; cited from earlier work
[3] = CD spectroscopy of peptide secondary structure; format: physicochemical; conditions: PBS; palmitoylated peptides in liposomes, acetylated peptides alone
Protocol: as §1

[4] = ThT fluorescence binding to liposomal peptide constructs; conditions: for Kd: ThT binding, single site fit, read-out: App. Kd; for Kd / Bmax: liposomes DMPC/DMPG/cholesterol/MPLA 9:1:7:0.06, diluted 8-fold; for Bmax: ThT fluorescence at saturation; for Bmax (% rel. ACI-24): relative to ACI-24 (Palm1-15); for ThT fluorescence emission (in words): emission at 485 nm, excitation 440 nm, PBS
Protocol: as §1

| Molecule | Secondary structure by CD spectroscopy [3] | Kd [4] [µM] | Bmax [4] | Bmax (% rel. ACI-24) [4] [%] | other results |
| --- | --- | --- | --- | --- | --- |
| [Cl][Cu][Cl] [Cu(II), CuCl2] |  |  |  |  | EC50 ([1]; ACI-24, ThT fluorescence, read-out: EC50 value for Cu(II) disaggregation): ~3 µM; decrease of ThT fluorescence upon addition of metal [1]: ~75% |
| [Cl][Fe]([Cl])[Cl] [Fe(III), FeCl3] |  |  |  |  | decrease of ThT fluorescence upon addition of metal [1]: none |
| CN(C)c1ccc2nc3ccc(=[N+](C)C)cc-3sc2c1 [Methylene Blue] |  |  |  |  | ThT fluorescence after incubation with β-sheet breaker small molecule [1]: most efficient disaggregation |
| O=C(/C=C/c1ccc(O)c(O)c1)O[C@H](Cc1ccc(O)c(O)c1)C(=O)O [Rosmarinic acid] |  |  |  |  | ThT fluorescence after incubation with β-sheet breaker small molecule [1]: decrease of fluorescence |
| O=C(OC[C@H]1O[C@@H](OC(=O)c2cc(O)c(O)c(OC(=O)c3cc(O)c(O)c(O)c3)c2)[C@H](OC(=O)c2cc(O)c(O)c(OC(=O)c3cc(O)c(O)c(O)c3)c2)[C@@H](OC(=O)c2cc(O)c(O)c(OC(=O)c3cc(O)c(O)c(O)c3)c2)[C@@H]1OC(=O)c1cc(O)c(O)c(OC(=O)c2cc(O)c(O)c(O)c2)c1)c1cc(O)c(O)c(OC(=O)c2cc(O)c(O)c(O)c2)c1 [Tannic acid] |  |  |  |  | ThT fluorescence after incubation with β-sheet breaker small molecule [1]: decrease of fluorescence |
| [Cl-].[Cl-].[Zn+2] [Zn(II), ZnCl2] |  |  |  |  | decrease of ThT fluorescence upon addition of metal [1]: ~12% |
| Aβ1-40: β-amyloid peptide Aβ1-40 |  |  |  |  | Kd [2]: 11 µM |
| H-K(X)-K(X)-DAAFRHKSGYEVHHQ-K(X)-K(X)-OH ({K(Ac)-K(Ac)}-DAAFRHKSGYEVHHQ-{K(Ac)-K(Ac)-OH}) [Acetyl1-15(E3A, D7K), X = Acetyl] | unstructured random coil conformations |  |  |  |  |
| H-K(X)-K(X)-DAAFRHKSGYEVHHQ-K(X)-K(X)-OH ({K(Palm)-K(Palm)}-DAAFRHKSGYEVHHQ-{K(Palm)-K(Palm)-OH}) [Palm1-15(E3A, D7K), X = Palmitoyl] |  | 14.7 | 24854 | 68 |  |
| H-K(X)-K(X)-DAEFR-K(X)-K(X)-OH [Palm1-5, X = Palmitoyl] | mixed proportion of extended β-sheet and random coil conformations | 0.7 | 12653 | 35 | ThT fluorescence emission (in words) [4]: lower ThT fluorescence intensity |
| H-K(X)-K(X)-DAEFRHKSGYEVHHQ-K(X)-K(X)-OH ({K(Ac)-K(Ac)}-DAEFRHKSGYEVHHQ-{K(Ac)-K(Ac)-OH}) [Acetyl1-15(D7K), X = Acetyl] | unstructured random coil conformations |  |  |  |  |
| H-K(X)-K(X)-DAEFRHKSGYEVHHQ-K(X)-K(X)-OH ({K(Palm)-K(Palm)}-DAEFRHKSGYEVHHQ-{K(Palm)-K(Palm)-OH}) [Palm1-15(D7K), X = Palmitoyl] |  | 8.8 | 21197 | 58 |  |
| H-K(X)-K(X)-DAKFRHKSGYEVHHQ-K(X)-K(X)-OH ({K(Ac)-K(Ac)}-DAKFRHKSGYEVHHQ-{K(Ac)-K(Ac)-OH}) [Acetyl1-15(E3K, D7K), X = Acetyl] | unstructured random coil conformations |  |  |  |  |
| H-K(X)-K(X)-DAKFRHKSGYEVHHQ-K(X)-K(X)-OH ({K(Palm)-K(Palm)}-DAKFRHKSGYEVHHQ-{K(Palm)-K(Palm)-OH}) [Palm1-15(E3K, D7K), X = Palmitoyl] |  | 12.1 | 12567 | 35 |  |
| H-K(X)-K(X)-DAKFRHKSGYKVHHQ-K(X)-K(X)-OH ({K(Ac)-K(Ac)}-DAKFRHKSGYKVHHQ-{K(Ac)-K(Ac)-OH}) [Acetyl1-15(E3K, D7K, E11K), X = Acetyl] | unstructured random coil conformations |  |  |  |  |
| H-K(X)-K(X)-DAKFRHKSGYKVHHQ-K(X)-K(X)-OH ({K(Palm)-K(Palm)}-DAKFRHKSGYKVHHQ-{K(Palm)-K(Palm)-OH}) [Palm1-15(E3K, D7K, E11K), X = Palmitoyl] |  | 10.1 | 24981 | 69 |  |
| H-K(X)-K(X)-GHEAYHSVERFDDQH-K(X)-K(X)-OH [scAcetyl15] ({K(Ac)-K(Ac)}-GHEAYHSVERFDDQH-{K(Ac)-K(Ac)-OH}) [X = Acetyl] | unstructured random coil conformations |  |  |  | ThT fluorescence emission (in words) [4]: no fluorescence |
| H-K(X)-K(X)-GHEAYHSVERFDDQH-K(X)-K(X)-OH [scPalm15] ({K(Palm)-K(Palm)}-GHEAYHSVERFDDQH-{K(Palm)-K(Palm)-OH}) [X = Palmitoyl] | β-sheet conformation | 7.9 | 13844 | 38 |  |
| H-K(X)-K(X)-QHHVEYGSDHRFEAD-K(X)-K(X)-OH [Acetyl15-1] ({K(Ac)-K(Ac)}-QHHVEYGSDHRFEAD-{K(Ac)-K(Ac)-OH}) [X = Acetyl] | unstructured random coil conformations |  |  |  | ThT fluorescence emission (in words) [4]: no fluorescence |
| H-K(X)-K(X)-QHHVEYGSDHRFEAD-K(X)-K(X)-OH [Palm15-1] ({K(Palm)-K(Palm)}-QHHVEYGSDHRFEAD-{K(Palm)-K(Palm)-OH}) [X = Palmitoyl] | β-sheet conformation | 7.8 | 11023 | 30 |  |
